In US12655125B2 (SIRONAX LTD., priority 2020, dated 2026):

test system: HT-29 cells; test: HT29 Cells 0FBS Assay In Vitro (TNF-α/SMAC mimetic/zVAD-FMK induced necroptosis, CellTiter-Glo cell viability); type: cell-based; conditions: Homo sapiens, HT-29, 20 h, read-out: Cell activity (EC50) of Compounds 1-116
How it was run: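 Viability was measured by ATP luminescence (CellTiter-Glo) after 20 h at 37° C of compound exposure in 10-point, 1:3 dilutions. Necroptosis in FBS-free HT-29 cultures was driven by a TNF-α (10 ng/ml), SMAC mimetic (6 μM) and zVAD-FMK (10 μM) cocktail. EC50 values are geometric means from duplicate curves.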

Compound	EC50
CN(C)Cc1cnn(C)c1-c1cc(OC2CN(C(=O)N3N=CC[C@H]3c3cc(F)cc(F)c3)C2)c(F)cn1 [compound 79, (S)-(5-(3,5-difluorophenyl)-4,5-dihydro-1H-pyrazol-1-yl)(3-((2-(4-((dimethylamino)methyl)-1-methyl-1H-pyrazol-5-yl)-5-fluoropyridin-4-yl)oxy)azetidin-1-yl)methanone]	0.1 to 100 nM

same assay, conditions: Homo sapiens, HT-29, 20 h, read-out: Cell activity (EC50) of Compounds 117-281

Compound	EC50
Cc1nn(CCO)c(C)c1-c1cc(OC2CN(C(=O)N3N=CC[C@H]3c3cc(F)cc(F)c3)C2)c(F)cn1 [compound 117, (S)-(5-(3,5-difluorophenyl)-4,5-dihydro-1H-pyrazol-1-yl)(3-((5-fluoro-2-(1-(2-hydroxyethyl)-3,5-dimethyl-1H-pyrazol-4-yl)pyridin-4-yl)oxy)azetidin-1-yl)methanone]	0.1 to 100 nM

same assay, conditions: Homo sapiens; HT-29 cells, FBS free medium, TNF-α (10 ng/ml), SMAC mimetic (6 uM), zVAD-FMK (10 μM), 20 hours; geometric mean EC50; read-out: Cell activity (EC50) of Compounds 1-116

Compound	EC50
Cn1ncnc1-c1cc(OC2CN(C(=O)N3N=CC[C@H]3c3cc(F)cc(F)c3)C2)c(F)cn1 [compound 29, (S)-(5-(3,5-difluorophenyl)-4,5-dihydro-1H-pyrazol-1-yl)(3-((5-fluoro-2-(1-methyl-1H-1,2,4-triazol-5-yl)pyridin-4-yl)oxy)azetidin-1-yl)methanone]	0.1 to 100 nM
CNC(=O)Cn1nc(C)c(-c2ncc(F)c(OC3CN(C(=O)N4N=CC[C@H]4c4cc(F)cc(F)c4)C3)n2)c1C [compound 98, (S)-2-(4-(4-((1-(5-(3,5-difluorophenyl)-4,5-dihydro-1H-pyrazole-1-carbonyl)azetidin-3-yl)oxy)-5-fluoropyrimidin-2-yl)-3,5-dimethyl-1H-pyrazol-1-yl)-N-methylacetamide]	0.1 to 100 nM
Cn1ncc(C#N)c1-c1ccc(F)c(OC2CN(C(=O)N3N=CCC3c3cc(F)cc(F)c3)C2)n1 (stereo not drawn) [compound 111, 5-(6-((1-(5-(3,5-difluorophenyl)-4,5-dihydro-1H-pyrazole-1-carbonyl)azetidin-3-yl)oxy)-5-fluoropyridin-2-yl)-1-methyl-11H-pyrazole-4-carbonitrile]	0.1 to 100 nM
Cn1cncc1-c1cc(OC2CN(C(=O)N3N=CC[C@H]3c3cc(F)cc(F)c3)C2)c(F)cn1 [compound 7, (S)-(5-(3,5-difluorophenyl)-4,5-dihydro-1H-pyrazol-1-yl)(3-((5-fluoro-2-(1-methyl-1H-imidazol-5-yl)pyridin-4-yl)oxy)azetidin-1-yl)methanone]	0.1 to 100 nM
Cc1nn(C)cc1-c1ncc(F)c(OC2CN(C(=O)N3N=CC[C@H]3c3cc(F)cc(F)c3)C2)n1 [compound 37, (S)-(5-(3,5-difluorophenyl)-4,5-dihydro-1H-pyrazol-1-yl)(3-((2-(1,3-dimethyl-1H-pyrazol-4-yl)-5-fluoropyrimidin-4-yl)oxy)azetidin-1-yl)methanone]	0.1 to 100 nM
CN(C)CCOc1cnn(C)c1-c1cc(OC2CN(C(=O)N3N=CC[C@H]3c3cc(F)cc(F)c3)C2)c(F)cn1 [compound 51, (S)-(5-(3,5-difluorophenyl)-4,5-dihydro-1H-pyrazol-1-yl)(3-((2-(4-(2-(dimethylamino)ethoxy)-1-methyl-1H-pyrazol-5-yl)-5-fluoropyridin-4-yl)oxy)azetidin-1-yl)methanone]	100 to 1000 nM
Cc1n[nH]c(C)c1-c1ncc(F)c(OC2CN(C(=O)N3N=CC[C@H]3c3cc(F)cc(F)c3)C2)n1 [compound 91, (S)-(5-(3,5-difluorophenyl)-4,5-dihydro-1H-pyrazol-1-yl)(3-((2-(3,5-dimethyl-1H-pyrazol-4-yl)-5-fluoropyrimidin-4-yl)oxy)azetidin-1-yl)methanone]	0.1 to 100 nM
Cc1ncsc1-c1ncc(F)c(OC2CN(C(=O)N3N=CC[C@H]3c3cc(F)cc(F)c3)C2)n1 [compound 9, (S)-(5-(3,5-difluorophenyl)-4,5-dihydro-1H-pyrazol-1-yl)(3-((5-fluoro-2-(4-methylthiazol-5-yl)pyrimidin-4-yl)oxy)azetidin-1-yl)methanone]	0.1 to 100 nM

same assay, conditions: Homo sapiens; HT-29 cells, FBS free medium, TNF-α (10 ng/ml), SMAC mimetic (6 uM), zVAD-FMK (10 μM), 20 hours; geometric mean EC50; read-out: Cell activity (EC50) of Compounds 117-281

Compound	EC50
Cc1c(-c2cc(OC3CN(C(=O)N4N=CC[C@H]4c4cc(F)cc(F)c4)C3)c(F)cn2)nn(C)c1C#N [compound 237, (S)-3-(4-((1-(5-(3,5-difluorophenyl)-4,5-dihydro-1H-pyrazole-1-carbonyl)azetidin-3-yl)oxy)-5-fluoropyridin-2-yl)-1,4-dimethyl-1H-pyrazole-5-carbonitrile]	0.1 to 100 nM
CONS(=O)(=O)c1c(C)nn(-c2cc(OC3CN(C(=O)N4N=CC[C@H]4c4cc(F)cc(F)c4)C3)c(F)cn2)c1C [compound 248, (S)-1-(4-((1-(5-(3,5-difluorophenyl)-4,5-dihydro-1H-pyrazole-1-carbonyl)azetidin-3-yl)oxy)-5-fluoropyridin-2-yl)-N-methoxy-3,5-dimethyl-1H-pyrazole-4-sulfonamide]	0.1 to 100 nM
Cc1c(-c2cc(OC3CN(C(=O)N4N=CC[C@H]4c4cc(F)cc(F)c4)C3)c(F)cn2)nn(C)c1C(=O)NC1CCC1 [compound 264, (S)—N-cyclobutyl-3-(4-((1-(5-(3,5-difluorophenyl)-4,5-dihydro-1H-pyrazole-1-carbonyl)azetidin-3-yl)oxy)-5-fluoropyridin-2-yl)-1,4-dimethyl-1H-pyrazole-5-carboxamide]	0.1 to 100 nM
Cc1c(-c2cc(OC3CN(C(=O)N4N=CC[C@H]4c4cc(F)cc(F)c4)C3)c(F)cn2)nn(C)c1C(=O)NC1CCOCC1 [compound 247, (S)-3-(4-((1-(5-(3,5-difluorophenyl)-4,5-dihydro-1H-pyrazole-1-carbonyl)azetidin-3-yl)oxy)-5-fluoropyridin-2-yl)-1,4-dimethyl-N-(tetrahydro-2H-pyran-4-yl)-1H-pyrazole-5-carboxamide]	0.1 to 100 nM
Cc1c(NC(=O)C2CC2)nn(C)c1-c1cc(OC2CN(C(=O)N3N=CC[C@H]3c3cc(F)cc(F)c3)C2)c(F)cn1 [compound 144, (S)—N-(5-(4-((1-(5-(3,5-difluorophenyl)-4,5-dihydro-1H-pyrazole-1-carbonyl)azetidin-3-yl)oxy)-5-fluoropyridin-2-yl)-1,4-dimethyl-1H-pyrazol-3-yl)cyclopropanecarboxamide]	0.1 to 100 nM
Cc1nc(C(N)=O)sc1-c1cc(OC2CN(C(=O)N3N=CC[C@H]3c3cc(F)cc(F)c3)C2)c(F)cn1 [compound 189, (S)-5-(4-((1-(5-(3,5-difluorophenyl)-4,5-dihydro-1H-pyrazole-1-carbonyl)azetidin-3-yl)oxy)-5-fluoropyridin-2-yl)-4-methylthiazole-2-carboxamide]	0.1 to 100 nM
Cn1ccnc1-c1cc(OC2CN(C(=O)N3N=CC[C@H]3c3cc(F)cc(F)c3)C2)c(F)cn1 [compound 146, (S)-(5-(3,5-difluorophenyl)-4,5-dihydro-1H-pyrazol-1-yl)(3-((5-fluoro-2-(1-methyl-1H-imidazol-2-yl)pyridin-4-yl)oxy)azetidin-1-yl)methanone]	0.1 to 100 nM
CN(C)C(=O)c1cc(-c2cc(OC3CN(C(=O)N4N=CC[C@H]4c4cc(F)cc(F)c4)C3)c(F)cn2)n(C)n1 [compound 171, (S)-5-(4-((1-(5-(3,5-difluorophenyl)-4,5-dihydro-1H-pyrazole-1-carbonyl)azetidin-3-yl)oxy)-5-fluoropyridin-2-yl)-N,N,1-trimethyl-11H-pyrazole-3-carboxamide]	0.1 to 100 nM
Cc1c(NC(C)C)nn(C)c1-c1cc(OC2CN(C(=O)N3N=CC[C@H]3c3cc(F)cc(F)c3)C2)c(F)cn1 [compound 162, (S)-(5-(3,5-difluorophenyl)-4,5-dihydro-1H-pyrazol-1-yl)(3-((5-fluoro-2-(3-(isopropylamino)-1,4-dimethyl-1H-pyrazol-5-yl)pyridin-4-yl)oxy)azetidin-1-yl)methanone]	0.1 to 100 nM
Cc1nn(-c2cc(OC3CN(C(=O)N4N=CC[C@H]4c4cc(F)cc(F)c4)C3)c(F)cn2)c(C)c1C [compound 251, (S)-(5-(3,5-difluorophenyl)-4,5-dihydro-1H-pyrazol-1-yl)(3-((5-fluoro-2-(3,4,5-trimethyl-1H-pyrazol-1-yl)pyridin-4-yl)oxy)azetidin-1-yl)methanone]	0.1 to 100 nM
Cc1nn(-c2cc(OC3CN(C(=O)N4N=CC[C@H]4c4cc(F)cc(F)c4)C3)c(F)cn2)c(C)c1C(=O)N1CCCC1 [compound 194, (S)-(5-(3,5-difluorophenyl)-4,5-dihydro-1H-pyrazol-1-yl)(3-((2-(3,5-dimethyl-4-(pyrrolidine-1-carbonyl)-1H-pyrazol-1-yl)-5-fluoropyridin-4-yl)oxy)azetidin-1-yl)methanone]	0.1 to 100 nM
Cc1nn(-c2cc(OC3CN(C(=O)N4N=CC[C@H]4c4cc(F)cc(F)c4)C3)c(F)cn2)c(C)c1CC(=O)N(C)C [compound 239, (S)-2-(1-(4-((1-(5-(3,5-difluorophenyl)-4,5-dihydro-1H-pyrazole-1-carbonyl)azetidin-3-yl)oxy)-5-fluoropyridin-2-yl)-3,5-dimethyl-1H-pyrazol-4-yl)-N,N-dimethylacetamide]	0.1 to 100 nM
Cc1cn(C)nc1-c1cc(OC2CN(C(=O)N3N=CC[C@H]3c3cc(F)cc(F)c3)C2)c(F)cn1 [compound 219, (S)-(5-(3,5-difluorophenyl)-4,5-dihydro-1H-pyrazol-1-yl)(3-((2-(1,4-dimethyl-1H-pyrazol-3-yl)-5-fluoropyridin-4-yl)oxy)azetidin-1-yl)methanone]	0.1 to 100 nM
Cc1nn(-c2cc(OC3CN(C(=O)N4N=CC[C@H]4c4cc(F)cc(F)c4)C3)c(F)cn2)c(C)c1SCc1ccccc1 [compound 227, (S)-(3-((2-(4-(benzylthio)-3,5-dimethyl-1H-pyrazol-1-yl)-5-fluoropyridin-4-yl)oxy)azetidin-1-yl)(5-(3,5-difluorophenyl)-4,5-dihydro-1H-pyrazol-1-yl)methanone]	0.1 to 100 nM
